The text below walks through data of the Deep4Chem optical property database.

This data set can be described thus: solvent given as SMILES.

As for `COc1ccc(N2c3cc(OC)ccc3N=c3cc4c(cc32)=Nc2cc(C(C)(C)C)cc(C(C)(C)C)c2O4)cc1`, the fluorescence lifetime (in CCCCCC) worked out at 1.14 ns.
`CC(C)(C)NC(=O)c1ccc(-c2ccc(N3c4ccccc4Oc4ccccc43)cc2)c2ccc3c4ccc(F)cc4c4cc(F)ccc4c3c12` returned a fluorescence lifetime (in ClCCl) of 89.3 ns.
The compound `CCOC(=O)c1ccc2c(c1)[nH]c1c3ccc(C(=O)OCC)cc3sc21` returned a fluorescence lifetime (in CCCO) of 2.6 ns.
`CNc1ccc(/C=C/C#N)cc1`: the fluorescence lifetime (in C1CCCCC1) is 0.6 ns, the fluorescence lifetime (in CC#N) came to 0.6 ns and the fluorescence lifetime (in O) is 1.13 ns.
`COc1ccc(C2=C3C=CC(C)=[N+]3[B-](F)(F)n3c(C)ccc32)cc1`: the fluorescence lifetime runs as follows: (in C1CCCCC1) 2.87 ns; (in CC#N) 1.6 ns; (in CCOC(C)=O) 2.24 ns; (in CO) 1.87 ns; (in Cc1ccccc1) 3.35 ns; (in ClC(Cl)Cl) 3.28 ns.
Regarding `CCN(CC)c1ccc2cc(C#N)/c(=N\C(C)=O)oc2c1`, the fluorescence lifetime is 1.8 ns (in CCO) and 4 ns (in ClCCl).
For `CCOc1cc2c(cc1/C=C/C(=C(C#N)C#N)c1ccccc1)c1ccccc1n2CC`, the fluorescence lifetime (in C1CCOC1) worked out at 5.66 ns; the fluorescence lifetime (in CC#N) was found to be 5.72 ns; the fluorescence lifetime (in CCO) came out at 5.24 ns; the fluorescence lifetime (in CCOC(C)=O) was determined as 5.19 ns; the fluorescence lifetime (in CN(C)C=O) came out at 5.41 ns; the fluorescence lifetime (in CS(C)=O) amounted to 7.08 ns. Moreover, the fluorescence lifetime was found to be 6.76 ns (in Cc1ccccc1), 7.78 ns (in ClC(Cl)Cl) and 5.13 ns (in ClCCl).
For `Cc1ccc(C2=C3C=C(I)C=[N+]3[B-](F)(F)n3cc(I)cc32)cc1`, the fluorescence lifetime came to 0.117 ns (in C1CCCCC1); 0.057 ns (in CC#N); 0.065 ns (in CCO); 0.069 ns (in CCOC(C)=O); 0.057 ns (in CO); 0.072 ns (in OCC(F)(F)F).
With `CC1(C)C(/C=C/C2=C(Cl)C(=C/C=C3/N(CCCS(=O)(=O)[O-])c4ccccc4C3(C)C)/CCC2)=[N+](CCCS(=O)(=O)[O-])c2ccccc21`, the fluorescence lifetime (in CO) amounted to 0.529 ns.
As for `COc1ccc(/C=C/c2nc3c4ccccc4c4ccccc4c3o2)cc1`, the fluorescence lifetime (in CC#N) is 0.97 ns.
Take `CC1(C)CC(/C=C/c2ccc(-n3cccn3)cc2)=CC(=C(C#N)C#N)C1`: where the note is “in CCO”, the fluorescence lifetime was 0.05 ns.
With `Cc1ccc(C2=C3C=C(I)C=[N+]3[B-](F)(F)n3cccc32)cc1`, the fluorescence lifetime reads like this: (in C1CCCCC1) 0.184 ns; (in CC#N) 0.06 ns; (in CCO) 0.07 ns; (in CCOC(C)=O) 0.082 ns; (in CO) 0.063 ns; (in OCC(F)(F)F) 0.069 ns.
Compound `c1ccc2c(c1)Sc1ccc(-n3c4ccccc4c4ccccc43)cc1S2` showed a fluorescence lifetime (in CC1CCCCC1) of 9.4 ns, a fluorescence lifetime (in O=P(c1ccccc1)(c1ccccc1)c1ccccc1Oc1ccccc1P(=O)(c1ccccc1)c1ccccc1) of 3.5 ns and a fluorescence lifetime (in c1cc(-c2cccc(-n3c4ccccc4c4ccccc43)c2)cc(-n2c3ccccc3c3ccccc32)c1) of 5.1 ns.
`N#Cc1cc(-c2ccc(F)cc2)cnc1O`: the fluorescence lifetime by setting is: (in CC#N) 5.22 ns; (in CO) 5.23 ns; (in O) 5.38 ns.
`CCNc1cc2oc(=O)cc(C)c2cc1C`: the fluorescence lifetime (in CC#N) came out at 3.5 ns.
`CC1=C2c3ccccc3C(c3ccc[nH]3)=[N+]2[B-](F)(F)n2cccc21` displayed a fluorescence lifetime (in ClCCl) of 6.71 ns.
`O=c1[nH]c(=O)c2nc3ccccc3nc2[nH]1`: the fluorescence lifetime (in CC#N) came to 0.35 ns.
For `Cc1ccc2nc3c(nc2c1)c(-c1ccccc1)nn3C`, the fluorescence lifetime is, setting by setting: (in C1CCCCC1) 9.32 ns; (in C1CCOC1) 23.6 ns; (in CC#N) 19.8 ns.
`CN(C)c1ccc(C2=Cc3c4ccccc4c4ccccc4[n+]3[B-](F)(F)O2)cc1` registered a fluorescence lifetime (in ClC(Cl)Cl) of 2.6 ns.
Take `CCN(CC)c1ccc2c(c1)oc(=O)c1cnc3c(cnn3-c3ccccc3)c12`: under “in ClCCl”, the fluorescence lifetime is 2.48 ns.
For `CC/C=C/C=C/C=C/C=C/CCCCCCCC(=O)O`, the fluorescence lifetime reads like this: (in CCCCCCCCCC) 3.1 ns; (in CCCCO) 1.5 ns.
In the case of `O=C1c2ccccc2C2=C(c3ccccn3)NN=C(c3ccccn3)C2c2ccccc21` (stereo unspecified), for the setting “in CC#N”, the fluorescence lifetime was 12.8 ns.
For `CC(C)[Si]1(C(C)C)c2cc(C#N)ccc2-c2ccc(N(C)C)cc21`, the fluorescence lifetime (in C1CCCCC1) turned out to be 2.6 ns and the fluorescence lifetime (in ClCCl) turned out to be 2.6 ns.
`N#Cc1cc2ccc([O-])cc2oc1=O`: the fluorescence lifetime (in O) was 3.96 ns.
Consider `CC(=O)c1ccc2ccc3cccc4ccc1c2c34`, for which the fluorescence lifetime is 13.4 ns (in C1CCOC1); 9.47 ns (in CC#N); 6.56 ns (in CCCCCC); 0.784 ns (in CCO); 5.34 ns (in CN(C)C=O); 0.538 ns (in CO). The fluorescence lifetime (in Cc1ccccc1) amounted to 2.8 ns and the fluorescence lifetime (in ClCCl) was found to be 4.8 ns.
Regarding `CCC1(CC)c2ccccc2-c2c1c1c(c3c2C(CC)(CC)c2cc(N(c4ccccc4)c4ccccc4)ccc2-3)C(CC)(CC)c2cc(N(c3ccccc3)c3ccccc3)ccc2-1`, where the note is “in C1CCOC1”, the fluorescence lifetime is 1.9 ns.
For the setting “in O”, `CC1(CCCCC(=O)NCCCCCCO)C(/C=C/C=C/C=C2/N(CCCS(=O)(=O)[O-])c3ccc(S(=O)(=O)[O-])cc3C2(C)C)=[N+](CCCS(=O)(=O)[O-])c2ccc(S(=O)(=O)[O-])cc21` (stereo unspecified) registered a fluorescence lifetime of 1 ns.
As to `CN(C)c1ccc(C2=Nc3sc4c(F)c(F)c(F)c(F)c4[n+]3[B-](F)(F)O2)cc1`, the fluorescence lifetime (in Cc1ccccc1) amounted to 2 ns.
With `CC1(C)Nc2cc(Cl)ccc2-c2[nH]c3ccccc3c(=O)c21`, the fluorescence lifetime by setting is: (in C1CCOC1) 7.47 ns; (in CC#N) 8.72 ns; (in CCCCO) 9.26 ns; (in CCCO) 9.2 ns; (in CCO) 9 ns; (in CCOC(C)=O) 7.52 ns. This compound also yielded a fluorescence lifetime (in CN(C)C=O) of 9.36 ns; a fluorescence lifetime (in CO) of 8.67 ns; a fluorescence lifetime (in CS(C)=O) of 9.91 ns; a fluorescence lifetime (in Cc1ccccc1) of 6.68 ns; a fluorescence lifetime (in ClC(Cl)(Cl)Cl) of 4.8 ns; a fluorescence lifetime (in ClCCl) of 8.06 ns. The compound further registered a fluorescence lifetime (in O) of 8.68 ns and a fluorescence lifetime (in c1ccccc1) of 6.71 ns.
`CCOC(=O)c1ccc2c(c1)sc1c3ccc(C(=O)OCC)cc3n(C)c21` displayed a fluorescence lifetime (in CCCO) of 3.9 ns.
`c1ccc([B-]23NC(C4CCCCC4)=Nc4cccc([n+]42)N=C(C2CCCCC2)N3)cc1` yielded a fluorescence lifetime (in ClCCl) of 4.6 ns.
`O=S1(=O)c2ccc(-c3ccc4c(c3)c3ccccc3n4-c3ccccc3)cc2C2(c3cc(-c4ccc5c(c4)c4ccccc4n5-c4ccccc4)ccc31)c1cc(-c3ccc4c(c3)c3ccccc3n4-c3ccccc3)ccc1S(=O)(=O)c1ccc(-c3ccc4c(c3)c3ccccc3n4-c3ccccc3)cc12` registered a fluorescence lifetime (in CC1CCCO1) of 100 ns.
Turning to `COC(=O)/C(C#N)=c1/cc/c(=c2/cc/c(=C(\C#N)C(=O)OC)s2)s1`, the fluorescence lifetime (in Cc1ccccc1) worked out at 0.016 ns.
Turning to `c1ccc(N(c2ccccc2)c2ccc(-c3ccc4c(c3)C3(c5cc(-c6ccc(N(c7ccccc7)c7ccccc7)cc6)ccc5O4)c4ccccc4-c4ccccc43)cc2)cc1`, where the note is “in ClCCl”, the fluorescence lifetime came out at 1.2 ns.
For the compound `CN(C)c1ccc(/C=C/C(=C(C#N)C#N)c2ccc3c4c(cccc24)CC3)cc1`, the fluorescence lifetime by setting is: (in C1CCOC1) 5.2 ns; (in CC#N) 2.25 ns; (in CC(C)=O) 3.84 ns; (in CCOC(C)=O) 4.98 ns; (in CN(C)C=O) 3.31 ns; (in CO) 2.85 ns. Further, the fluorescence lifetime stood at 3.92 ns (in Cc1ccccc1) and 4.27 ns (in ClC(Cl)Cl).
